The subject of the assay is lipolysis. In words: In-vitro activity: lipolysis. Format: cell-based. The settings on record: 3 %.

Results on one compound are retold here after US20260090980A1, “COSMETIC COMPOSITIONS AND METHODS OF USING THE SAME” (MARY KAY INC., priority 2022, published 2026).

The structures appear in SMILES notation.

Turning to `Cn1c(=O)c2c(ncn2C)n(C)c1=O` [Caffeine], the “Activity: lipolysis” value was “Lipolysis”.
